Source: patent US8198441B2, “Process for the preparation of novel pyridopyrazines as mTOR kinase inhibitors” (AstraZeneca AB, priority 2008, dated 2012)
Where two headings read alike, the source gives them in different places. Each block holds one compound with its values, some of them ahead of it.

Tests used:
[1] = TIM-1 multi-compartmental in vitro model, bioaccessibility; assay type: in vitro ADME; settings: for recovery at 10 mg/mL: TIM-1 multi-compartmental in vitro gastrointestinal model, read-out: Total recovery
Experimental: Bioaccessibility of a compound of Formula 5a in the form of a free base and a fumarate salt was assessed using a TIM-1 multi-compartmental in vitro model (TNO Quality of Life, The Netherlands).
Initial assessment of solutions and suspensions of the free base form at concentrations of 10 mg/mL and doses of 200 mg and 500 mg were performed using a standard protocol (lipid-fasted with starting gastric pH of 2 and a gastric half-time of 30 minutes).
A further study was performed with an increased initial gastric pH of 5 and a reduced gastric half-time of 20 min. In this study, 200 mg (free base equivalent) doses of 10 mg/mL suspensions of the free base and fumarate salt of the compound of Formula 5a were compared (see Table 4, FIG. 8).

[2] = Stability study of the fumarate salt in the solid state; assay type: physicochemical
Experimental: The stability of the fumarate salt of the compound of Formula 5a in the solid state was investigated for samples stored at 25° C./60% relative humidity (RH) in double lined polyethylene bags inside a fibreboard outer for long term stability testing. […] AH (ambient humidity) in double lined polyethylene bags inside fibreboard outers. Further stress testing was performed on exposed samples at 40° C./75% RH and at ambient temperature in a light chamber (exposed to a minimum of 1.2 million lux hours visible light and 200 watt-hours/m^2 UV light), as shown in Table 5.

- recovery at 10 mg/mL ([1]; 200 mg (free base equivalent), pH 5, 200 mg (free base equivalent) of 10 mg/mL suspension, initial gastric pH 5, gastric half-time 20 min): 93%
- recovery at 10 mg/mL ([1]; 200 mg, pH 2, 200 mg solution, 10 mg/mL, lipid-fasted, starting gastric pH 2, gastric half-time 30 min): 96.8%
- recovery at 10 mg/mL ([1]; 200 mg, pH 2, 200 mg suspension, 10 mg/mL, lipid-fasted, starting gastric pH 2, gastric half-time 30 min): 97.6%
- recovery at 10 mg/mL ([1]; 200 mg, pH 2, Table 4: 200 mg suspension, gastric pH 2): 97.6%
- recovery at 10 mg/mL ([1]; 500 mg, pH 2, 500 mg solution, 10 mg/mL, lipid-fasted, starting gastric pH 2, gastric half-time 30 min): 93.6%
- recovery at 10 mg/mL ([1]; 500 mg, pH 2, 500 mg suspension, 10 mg/mL, lipid-fasted, starting gastric pH 2, gastric half-time 30 min): 91.7%
Structure (SMILES): COc1ccc(-c2ccc3c(N4CCOC[C@@H]4C)nc(N4CCOC[C@@H]4C)nc3n2)cc1CO [Formula 5a free base, (5-{2,4-bis[(3S)-3-methylmorpholin-4-yl]pyrido[2,3-d]pyrimidin-7-yl}-2-methoxyphenyl)methanol]

- Total recovery ([1]; 200 mg (free base equivalent) of 10 mg/mL suspension, initial gastric pH 5, gastric half-time 20 min): 95.12
- Assay (water and solvent-free, % w/w) ([2]; 1 month, 40° C./75% RH exposed): 100.3 % w/w
- Organic impurities: Largest single impurity (% w/w) ([2]; 1 month, 40° C./75% RH exposed): 0.16 % w/w
- Total organic impurities (% w/w) ([2]; 1 month, 40° C./75% RH exposed): 0.36 % w/w
- Water content (% w/w) ([2]; 1 month, 40° C./75% RH exposed): 5.0 % w/w
- Assay (water and solvent-free, % w/w) ([2]; 3 months, 25° C./60% RH): 99.7 % w/w
- Organic impurities: Largest single impurity (% w/w) ([2]; 3 months, 25° C./60% RH): 0.16 % w/w
- Total organic impurities (% w/w) ([2]; 3 months, 25° C./60% RH): 0.31 % w/w
- Water content (% w/w) ([2]; 3 months, 25° C./60% RH): 4.5 % w/w
- Assay (water and solvent-free, % w/w) ([2]; 3 months, 40° C./75% RH): 99.3 % w/w
- Organic impurities: Largest single impurity (% w/w) ([2]; 3 months, 40° C./75% RH): 0.16 % w/w
- Total organic impurities (% w/w) ([2]; 3 months, 40° C./75% RH): 0.26 % w/w
- Water content (% w/w) ([2]; 3 months, 40° C./75% RH): 5.6 % w/w
- Assay (water and solvent-free, % w/w) ([2]; 3 months, 50° C.): 96.8 % w/w
- Organic impurities: Largest single impurity (% w/w) ([2]; 3 months, 50° C.): 0.16 % w/w
- Total organic impurities (% w/w) ([2]; 3 months, 50° C.): 0.44 % w/w
- Water content (% w/w) ([2]; 3 months, 50° C.): 0.6 % w/w
- degradation on storage ([2]; 25° C./60% RH, 40° C./75% RH and 50° C. AH, 3 months): no significant degradation
- Assay (water and solvent-free, % w/w) ([2]; 10 days, light-exposed): 95.5 % w/w
- Organic impurities: Largest single impurity (% w/w) ([2]; 10 days, light-exposed): 0.97 % w/w
- Total organic impurities (% w/w) ([2]; 10 days, light-exposed): 2.28 % w/w
- Water content (% w/w) ([2]; 10 days, light-exposed): 5.0 % w/w
- Assay (water and solvent-free, % w/w) ([2]; Initial): 99.4 % w/w
- Organic impurities: Largest single impurity (% w/w) ([2]; Initial): 0.16 % w/w
- Total organic impurities (% w/w) ([2]; Initial): 0.31 % w/w
- Water content (% w/w) ([2]; Initial): 3.4 % w/w
- thermal degradation ([2]; stored at 50° C.): some evidence of thermal degradation
Structure (SMILES): COc1ccc(-c2ccc3c(N4CCOC[C@@H]4C)nc(N4CCOC[C@@H]4C)nc3n2)cc1CO.O=C(O)/C=C/C(=O)O [Formula 5a fumarate salt, (5-{2,4-Bis[(3S)-3-methylmorpholin-4-yl]pyrido[2,3-d]pyrimidin-7-yl}-2-methoxyphenyl)methanol Fumarate salt]
- effect of exposure to light under stress conditions ([2]; light chamber, minimum 1.2 million lux hours visible and 200 watt-hours/m2 UV): darkened on exposed surfaces and a loss of assay and corresponding increase in organic impurities
